Laboratory results taken from US8652522B2, “Pharmaceutical composition of an iontophoresis” (Teikoku Seiyaku Co., Ltd., priority 2009, dated 2014).
Read-outs that look alike come from different tables or passages of the source.

Experimental: Next, the stability of the chemical drug under the wide area of the buffer solution at pH 2 to 8 was examined. […] Moreover, at 4° C., 40° C., 50° C. and 60° C., the stability of the chemical drug after 2 weeks, after 1 month, after 4 months and after 6 months were also examined. […] In the tables, W means a purified water (ion-exchange water), N2—W means a purified water which the bubbling is carried out with the nitrogen gas.

C[C@H]1C[C@H]2[C@@H]3CCC4=CC(=O)C=C[C@]4(C)[C@@]3(F)[C@@H](O)C[C@]2(C)[C@@]1(O)C(=O)COP(=O)([O-])[O-].[Na+].[Na+] [betamethasone sodium phosphate]
pair theoritical value % Mean (N2-W (nitrogen-bubbled purified water), 4° C. 1 month): 107.68%
pair theoritical value % Mean (N2-W (nitrogen-bubbled purified water), 4° C. 2 weeks): 99.20%
pair theoritical value % Mean (N2-W (nitrogen-bubbled purified water), 4° C. 4 month): 100.06%
pair theoritical value % Mean (N2-W (nitrogen-bubbled purified water), 4° C. 6 month): 98.27%
pair theoritical value % Mean (N2-W (nitrogen-bubbled purified water), 40° C. 1 month): 85.82%
pair theoritical value % Mean (N2-W (nitrogen-bubbled purified water), 40° C. 4 month): 100.30%
pair theoritical value % Mean (N2-W (nitrogen-bubbled purified water), 50° C. 1 month): 89.72%
pair theoritical value % Mean (N2-W (nitrogen-bubbled purified water), 50° C. 4 month): 77.62%
pair theoritical value % Mean (N2-W (nitrogen-bubbled purified water), 60° C. 1 month): 38.91%
pair theoritical value % Mean (N2-W (nitrogen-bubbled purified water), 60° C. 2 weeks): 91.76%
pair theoritical value % Mean (N2-W (nitrogen-bubbled purified water), 60° C. 4 month): 41.97%
pair theoritical value % Mean (W (purified water), 4° C. 1 month): 101.42%
pair theoritical value % Mean (W (purified water), 4° C. 2 weeks): 101.05%
pair theoritical value % Mean (W (purified water), 4° C. 4 month): 110.24%
pair theoritical value % Mean (W (purified water), 4° C. 6 month): 98.01%
pair theoritical value % Mean (W (purified water), 40° C. 1 month): 96.79%
pair theoritical value % Mean (W (purified water), 40° C. 4 month): 100.99%
pair theoritical value % Mean (W (purified water), 50° C. 1 month): 78.74%
pair theoritical value % Mean (W (purified water), 50° C. 4 month): 70.87%
pair theoritical value % Mean (W (purified water), 60° C. 1 month): 33.60%
pair theoritical value % Mean (W (purified water), 60° C. 2 weeks): 85.69%
pair theoritical value % Mean (W (purified water), 60° C. 4 month): 17.67%
pair theoritical value % Mean (pH 2, 4° C. 1 month): 81.61%
pair theoritical value % Mean (pH 2, 4° C. 2 weeks): 75.50%
pair theoritical value % Mean (pH 2, 4° C. 4 month): 121.42%
pair theoritical value % Mean (pH 2, 40° C. 1 month): 62.65%
pair theoritical value % Mean (pH 2, 40° C. 4 month): 57.15%
pair theoritical value % Mean (pH 2, 40° C. 6 month): 33.20%
pair theoritical value % Mean (pH 2, 50° C. 1 month): 55.83%
pair theoritical value % Mean (pH 2, 50° C. 4 month): 22.44%
pair theoritical value % Mean (pH 2, 60° C. 1 month): 14.90%
pair theoritical value % Mean (pH 2, 60° C. 2 weeks): 42.03%
pair theoritical value % Mean (pH 2, 60° C. 4 month): 2.79%
pair theoritical value % Mean (pH 3, 4° C. 1 month): 82.46%
pair theoritical value % Mean (pH 3, 4° C. 2 weeks): 85.23%
pair theoritical value % Mean (pH 3, 4° C. 4 month): 104.26%
pair theoritical value % Mean (pH 3, 40° C. 1 month): 82.48%
pair theoritical value % Mean (pH 3, 40° C. 4 month): 73.33%
pair theoritical value % Mean (pH 3, 40° C. 6 month): 50.00%
pair theoritical value % Mean (pH 3, 50° C. 1 month): 64.66%
pair theoritical value % Mean (pH 3, 50° C. 4 month): 32.84%
pair theoritical value % Mean (pH 3, 60° C. 1 month): 17.55%
pair theoritical value % Mean (pH 3, 60° C. 2 weeks): 50.37%
pair theoritical value % Mean (pH 3, 60° C. 4 month): 3.46%
pair theoritical value % Mean (pH 4, 4° C. 1 month): 95.85%
pair theoritical value % Mean (pH 4, 4° C. 2 weeks): 89.42%
pair theoritical value % Mean (pH 4, 4° C. 4 month): 108.15%
pair theoritical value % Mean (pH 4, 4° C. 6 month): 81.32%
pair theoritical value % Mean (pH 4, 40° C. 1 month): 81.36%
pair theoritical value % Mean (pH 4, 40° C. 4 month): 77.80%
pair theoritical value % Mean (pH 4, 40° C. 6 month): 53.22%
pair theoritical value % Mean (pH 4, 50° C. 1 month): 63.08%
pair theoritical value % Mean (pH 4, 50° C. 4 month): 31.80%
pair theoritical value % Mean (pH 4, 60° C. 1 month): 19.17%
pair theoritical value % Mean (pH 4, 60° C. 2 weeks): 52.38%
pair theoritical value % Mean (pH 4, 60° C. 4 month): 3.38%
pair theoritical value % Mean (pH 5, 4° C. 1 month): 93.36%
pair theoritical value % Mean (pH 5, 4° C. 2 weeks): 94.34%
pair theoritical value % Mean (pH 5, 4° C. 4 month): 109.24%
pair theoritical value % Mean (pH 5, 4° C. 6 month): 90.85%
pair theoritical value % Mean (pH 5, 40° C. 1 month): 78.88%
pair theoritical value % Mean (pH 5, 40° C. 4 month): 82.09%
pair theoritical value % Mean (pH 5, 50° C. 1 month): 75.05%
pair theoritical value % Mean (pH 5, 50° C. 4 month): 32.88%
pair theoritical value % Mean (pH 5, 60° C. 1 month): 17.09%
pair theoritical value % Mean (pH 5, 60° C. 2 weeks): 56.51%
pair theoritical value % Mean (pH 5, 60° C. 4 month): 3.34%
pair theoritical value % Mean (pH 6, 4° C. 1 month): 104.98%
pair theoritical value % Mean (pH 6, 4° C. 2 weeks): 98.90%
pair theoritical value % Mean (pH 6, 4° C. 4 month): 107.46%
pair theoritical value % Mean (pH 6, 4° C. 6 month): 97.60%
pair theoritical value % Mean (pH 6, 40° C. 1 month): 86.51%
pair theoritical value % Mean (pH 6, 40° C. 4 month): 89.24%
pair theoritical value % Mean (pH 6, 50° C. 1 month): 75.38%
pair theoritical value % Mean (pH 6, 50° C. 4 month): 41.48%
pair theoritical value % Mean (pH 6, 60° C. 1 month): 25.28%
pair theoritical value % Mean (pH 6, 60° C. 2 weeks): 69.99%
pair theoritical value % Mean (pH 6, 60° C. 4 month): 5.85%
pair theoritical value % Mean (pH 7, 4° C. 1 month): 110.30%
pair theoritical value % Mean (pH 7, 4° C. 2 weeks): 100.23%
pair theoritical value % Mean (pH 7, 4° C. 4 month): 105.27%
pair theoritical value % Mean (pH 7, 4° C. 6 month): 101.38%
pair theoritical value % Mean (pH 7, 40° C. 1 month): 89.32%
pair theoritical value % Mean (pH 7, 40° C. 4 month): 102.71%
pair theoritical value % Mean (pH 7, 50° C. 1 month): 86.96%
pair theoritical value % Mean (pH 7, 50° C. 4 month): 66.49%
pair theoritical value % Mean (pH 7, 60° C. 1 month): 36.13%
pair theoritical value % Mean (pH 7, 60° C. 2 weeks): 87.22%
pair theoritical value % Mean (pH 7, 60° C. 4 month): 25.71%
pair theoritical value % Mean (pH 8, 4° C. 1 month): 97.51%
pair theoritical value % Mean (pH 8, 4° C. 2 weeks): 104.91%
pair theoritical value % Mean (pH 8, 4° C. 4 month): 108.32%
pair theoritical value % Mean (pH 8, 4° C. 6 month): 103.29%
pair theoritical value % Mean (pH 8, 40° C. 1 month): 90.10%
pair theoritical value % Mean (pH 8, 40° C. 4 month): 106.12%
pair theoritical value % Mean (pH 8, 50° C. 1 month): 103.57%
pair theoritical value % Mean (pH 8, 50° C. 4 month): 83.79%
pair theoritical value % Mean (pH 8, 60° C. 1 month): 45.01%
pair theoritical value % Mean (pH 8, 60° C. 2 weeks): 95.80%
pair theoritical value % Mean (pH 8, 60° C. 4 month): 61.99%
